Measurements taken from patent US20180193294A1, “Dehydroabietic acid (DHAA) derivatives for use as ion channel openers” (priority 2015, published 2018).

Target: 3R Shaker K channel (Drosophila melanogaster, UniProt P08510, A359R/M356R)
Experiment: physchem
Type: cell-based
Settings: 100 μM; for compound-induced G(V) shift (mean±SEM) / G(V) shift: pH 7.4, Xenopus oocytes; for ΔG(V) of representative G(V) curves (single examples): pH 7.4, same cells as representative traces; for relative current amplitude: representative traces at voltage giving 10% of maximum conductance in control; for relative current amplitude / effect on G(V) shift / current compared with DHAA / increase in G(V) shift relative to DHAA (ΔVc7, ΔVhalo, ΔVtot): pH 7.4; for effect on G(V) shift / current compared with DHAA: C7-modified DHAA; for G(V) shift: Table 1
Description: A 3R Shaker K channel is a modified Shaker K channel where residues 356 and 359 are mutated to arginines.
All animal experiments were approved by the local Animal Care and Use Committee and followed international guidelines. A modified Shaker H4 channel^30, with removed N-type inactivation (ShH4IR)^31, here called the wild type (WT) channel, was expressed in oocytes. In addition, a modified 3R Shaker K channel where two introduced positive charged arginines (M356R and A359R) in addition to one native arginine (R362) makes the channel more sensitive to DHA^16, was expressed in oocytes and in a CHO—K1 stable cell line.
African clawed frogs (Xenopus laevis) were anesthetized with 1.4 g/L ethyl 3-aminobenzoate methanesulfonate salt (tricaine). After an incision through the abdomen a batch of oocytes were removed. Clusters of oocytes were separated by incubation for ˜1 h in a Ca-free O—R2 solution (in mM: 82.5 NaCl, 2 KCl, 5 HEPES, and 1 MgCl2; pH adjusted to 7.4 by NaOH) containing Liberase Blendzyme. The oocytes were then incubated at 8° C. in a modified Barth's solution (MBS; in mM: 88 NaCl, 1 KCl, 2.4 NaHCO3, 15 HEPES, 0.33 Ca(NO3)2, 0.41 CaCl2, and 0.82 MgSO4; pH adjusted to 7.6 by NaOH) supplemented with penicillin (25 U/ml), streptomycin (25 μg/ml), and sodium pyruvate (2.5 mM) 2-24 hours before injection. Fifty nl of cRNA (50 pg) were injected into each oocyte using a Nanoject injector (Drummond Scientific, Broomall, Pa.). Injected oocytes were kept at 8° C. in MBS until one day before electrophysiological recordings, when they were incubated at 16° C. All chemicals were supplied from Sigma-Aldrich (Stockholm, Sweden) if not stated otherwise.
All manual electrophysiological recordings were performed at room temperature (20-23° C.), using a GeneClamp 500B amplifier (for oocytes) or a Axopatch 200B amplifier (for manual patch clamp of CHO—K1 cells and DRG neurons) and a Digidata 1440A digitizer and pClamp 10 software (all from Molecular Devices, Inc., Sunnyvale, Calif., USA). Compounds were dissolved to 100 mM in 99.5% EtOH and stored at −20° C. Compounds were diluted in extracellular solution to the desired test concentration.
The oocyte was placed in a bath surrounded by 1K extracellular solution that contained (in mM): 88 NaCl, 1 KCl, 15 HEPES, 0.4 CaCl2, and 0.8 MgCl2, pH adjusted to 7.4 by NaOH (reaching a sodium concentration of ˜100 mM). Control solution was added to the bath with a gravity driven perfusion system. Compound solution was added to the bath manually with a syringe. Two glass microelectrodes were inserted into the oocyte using micromanipulators. […] All channels were closed when the potential was clamped to −80 mV and this voltage was set as the holding potential. Currents were evoked from the holding potential of −80 mV by 100-ms long, 5-mV steps ranging from −80 up to +50 mV (WT) and +70 mV (3R).
Conductance GK(V) was calculated as GK(V)=[…], (Eq. 1) where IK is the average current from the steady-state phase at the end of each 100-ms pulse, V is the membrane voltage, and Vrev is the reversal potential for K^+, (set to −80 mV for the oocytes, and calculated to be −89 mV for the CHO—K1 cells).
G(V)=A/(1+exp((V1/2−V)/s))^n (Eq. 2) where A is amplitude of the curve, V is the absolute membrane voltage, V1/2 is the midpoint, s is the slope and n is an exponent set to 4^17. The compound-induced G(V) shift was determined at the 10% level of the maximum conductance in control solution^17. The compound-induced G(V) shift in CHO—K1 was quantified by subtracting the control V1/2 from the compound V1/2 when n was set to 1.
Data for concentration and pH dependent G(V) shifts (ΔV) in oocytes were fit with a dose-response equation ΔV=ΔVmax/(1+c1/2/c), (Eq. 3) where Δvmax is the maximal shift, c1/2 is half maximal effective concentration/pKa value and c is the concentration.

Sequence of 3R Shaker K channel (P08510 whole entry M356R/A359R): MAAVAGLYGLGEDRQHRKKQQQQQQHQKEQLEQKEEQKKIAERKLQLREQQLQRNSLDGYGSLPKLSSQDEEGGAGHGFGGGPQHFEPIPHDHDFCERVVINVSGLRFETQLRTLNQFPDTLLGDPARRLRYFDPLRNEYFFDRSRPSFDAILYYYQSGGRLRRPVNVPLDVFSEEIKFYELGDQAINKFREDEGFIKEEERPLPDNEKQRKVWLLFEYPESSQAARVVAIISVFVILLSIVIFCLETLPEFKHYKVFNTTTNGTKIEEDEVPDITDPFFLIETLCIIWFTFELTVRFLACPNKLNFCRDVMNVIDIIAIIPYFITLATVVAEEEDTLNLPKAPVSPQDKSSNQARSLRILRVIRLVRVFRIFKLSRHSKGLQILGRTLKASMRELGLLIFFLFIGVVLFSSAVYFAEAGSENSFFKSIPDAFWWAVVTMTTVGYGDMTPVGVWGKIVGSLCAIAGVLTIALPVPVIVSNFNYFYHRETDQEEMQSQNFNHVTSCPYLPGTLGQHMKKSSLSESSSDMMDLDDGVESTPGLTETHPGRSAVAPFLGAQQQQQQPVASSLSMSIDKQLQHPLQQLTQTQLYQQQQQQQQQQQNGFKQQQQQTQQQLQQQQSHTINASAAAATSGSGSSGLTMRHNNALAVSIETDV

Row | SMILES | G(V) shift [mV] | also measured
1 | CC(C)C1=CC2=CC[C@@H]3[C@](C)(CCC[C@@]3(C)C(=O)O)[C@H]2CC1 [AA, abietic acid] | – | compound-induced G(V) shift (mean±SEM): −11.2±2 mV; ΔG(V) of representative G(V) curves (single examples): −8.1 mV; relative current amplitude: 2.2 times
2 | CC(C)c1ccc2c(c1)C(=NOCc1ccccc1)CC1C(C)(C(=O)O)CCCC21C (centres unmarked) [Compound K9] | −9.5 | effect on G(V) shift / current compared with DHAA: no significantly different effects compared to DHAA
3 | CC(C)c1ccc2c(c1)C(=NOCCCc1ccccc1)CC1C(C)(C(=O)O)CCCC21C (centres unmarked) [Compound K10] | −3.0 | effect on G(V) shift / current compared with DHAA: decreased potency compared to DHAA
4 | CC(C)c1ccc2c(c1Cl)CCC1[C@](C)(C(=O)O)CCC[C@]21C (stereo partly drawn) [Wu14, (1R,4aS)-8-chloro-7-isopropyl-1,4a-dimethyl-1,2,3,4,4a,9,10,10a-octahydrophenanthrene-1-carboxylic acid] | −17.5 | –
5 | CC(C)c1ccc2c(c1Cl)C(=O)CC1[C@](C)(C(=O)O)CCC[C@]21C (some centres unmarked) [Wu15] | −4.9 | –
6 | CO/N=C1\CC2[C@](C)(C(=O)O)CCC[C@]2(C)c2ccc(C(C)C)c(Cl)c21 (stereo partly drawn) [Wu16, (1R,4aS,E)-8-chloro-7-isopropyl-9-methoxyimino-1,4a-dimethyl-1,2,3,4,4a,9,10,10a-octahydrophenanthrene-1-carboxylic acid] | −17.2 | –
7 | CC(C)c1ccc2c(c1Cl)C(=NO)CC1C(C)(C(=O)O)CCCC21C (centres unmarked) [Wu17] | −5.3 | –
8 | CC(C)c1ccc2c(c1Cl)C(=NOCc1ccccc1)CC1C(C)(C(=O)O)CCCC21C (centres unmarked) [Wu18] | −1.3 | –
9 | C=CCO/N=C1\CC2[C@](C)(C(=O)O)CCC[C@]2(C)c2ccc(C(C)C)c(Cl)c21 (stereo partly drawn) [Wu19, (1R,4aS,E)-9-((allyloxy)imino)-8-chloro-7-isopropyl-1,4a-dimethyl-1,2,3,4,4a,9,10,10a-octahydrophenanthrene-1-carboxylic acid] | −16.1 | –
10 | CC(C)c1cc2c(cc1Cl)[C@@]1(C)CCC[C@@](C)(C(=O)O)C1CC2=O (stereo partly drawn) [Wu20, (1R,4aS,E)-6-chloro-7-isopropyl-9-oxo-1,4a-dimethyl-1,2,3,4,4a,9,10,10a-octahydrophenanthrene-1-carboxylic acid] | −13.9 | –
11 | CC(C)c1cc2c(cc1Cl)[C@@]1(C)CCC[C@@](C)(C(=O)O)C1C/C2=N\O (stereo partly drawn) [Wu21, (1R,4aS,E)-6-chloro-7-isopropyl-9-hydroxyimino-1,4a-dimethyl-1,2,3,4,4a,9,10,10a-octahydrophenanthrene-1-carboxylic acid] | −13.8 | –
12 | CC(C)c1cc2c(cc1Cl)C1(C)CCCC(C)(C(=O)O)C1CC2=NOCc1ccccc1 (centres unmarked) [Wu22] | −9.1 | –
13 | CC(C)c1cc2c(cc1Br)[C@@]1(C)CCC[C@@](C)(C(=O)O)C1CC2 (stereo partly drawn) [Wu24, (1R,4aS,E)-6-bromo-7-isopropyl-1,4a-dimethyl-1,2,3,4,4a,9,10,10a-octahydrophenanthrene-1-carboxylic acid] | −12.5 | increase in G(V) shift relative to DHAA (ΔVc7, ΔVhalo, ΔVtot): −0.3 mV; compound-induced G(V) shift (mean±SEM): −12.4 mV
14 | CC(C)c1c(Cl)cc2c(c1Cl)CC[C@H]1[C@](C)(C(=O)O)CCC[C@]21C [Wu27] | −5.9 | compound-induced G(V) shift (mean±SEM): −5.9±0.4 mV; ΔG(V) of representative G(V) curves (single examples): −6.1 mV
15 | CC(C)c1cc2c(cc1Br)[C@@]1(C)CCC[C@@](C)(C(=O)O)C1C/C2=N\O (stereo partly drawn) [Wu28, (1R,4aS,E)-6-bromo-9-(hydroxyimino)-7-isopropyl-1,4a-dimethyl-1,2,3,4,4a,9,10,10a-octahydrophenanthrene-1-carboxylic acid] | −12.4 | –
16 | CC(C)c1cc2c(cc1Br)C1(C)CCCC(C)(C(=O)O)C1CC2=O (centres unmarked) [Wu30] | −7.0 | –
17 | CC(C)c1ccc2c(c1)C(=NO)CC1C(C)(C(=O)O)CCCC21C (centres unmarked) [Wu31] | −3.0 | effect on G(V) shift / current compared with DHAA: clearly reduced the current increase
18 | C=CCO/N=C1\CC2[C@](C)(C(=O)O)CCC[C@]2(C)c2cc(Br)c(C(C)C)cc21 (stereo partly drawn) [Wu33, (1R,4aS,E)-6-bromo-9-((allyloxy)imino)-7-isopropyl-1,4a-dimethyl-1,2,3,4,4a,9,10,10a-octahydrophenanthrene-1-carboxylic acid] | −24.5 | –

Row | SMILES | G(V) shift [mV] | also measured
19 | CC(C)c1cc2c(cc1Br)C1(C)CCCC(C)(C(=O)O)C1CC2=NOCc1ccccc1 (centres unmarked) [Wu34] | −6.6 | –
20 | CON=C1C[C@H]2[C@](C)(C(=O)O)CCC[C@]2(C)c2ccc(C(C)C)cc21 [Wu36] | −14.8 | increase in G(V) shift relative to DHAA (ΔVc7, ΔVhalo, ΔVtot): −2.7 mV; compound-induced G(V) shift (mean±SEM): −14.8 mV; effect on G(V) shift / current compared with DHAA: no significantly different effects compared to DHAA; relative current amplitude: 4.4 times
21 | CC(C)c1c(Cl)cc2c(c1Cl)C(=O)CC1C(C)(C(=O)O)CCCC21C (centres unmarked) [Wu37] | −11.1 | –
22 | COC1CC2[C@](C)(C(=O)O)CCC[C@]2(C)c2ccc(C(C)C)cc21 (some centres unmarked) [Wu39] | −7.3 | effect on G(V) shift / current compared with DHAA: clearly reduced the current increase; relative current amplitude: 2.6 times
23 | C=CCON=C1CC2C(C)(C(=O)O)CCCC2(C)c2cc(Cl)c(C(C)C)c(Cl)c21 (centres unmarked) [Wu40] | −13.4 | –
24 | CON=C1C[C@H]2[C@](C)(C(=O)O)CCC[C@]2(C)c2cc(Cl)c(C(C)C)c(Cl)c21 [Wu41, (1R,4aS,10aR)-6,8-dichloro-7-isopropyl-9-(methoxyimino)-1,4a-dimethyl-1,2,3,4,4a,9,10,10a-octahydrophenanthrene-1-carboxylic acid] | −22.1 | –
25 | CC(C)c1c(Cl)cc2c(c1Cl)C(=NO)CC1C(C)(C(=O)O)CCCC21C (centres unmarked) [Wu42] | −6.1 | –
26 | CC(C)c1c(Cl)cc2c(c1Cl)C(=NOCc1ccccc1)CC1C(C)(C(=O)O)CCCC21C (centres unmarked) [Wu43] | −4.2 | –
27 | CC(C)c1c(Cl)c(Cl)c2c(c1Cl)CCC1C(C)(C(=O)O)CCCC21C (centres unmarked) [Wu45] | −3.9 | –
28 | CC(C)c1c(Cl)c(Cl)c2c(c1Cl)C(=O)CC1[C@](C)(C(=O)O)CCC[C@]21C (some centres unmarked) [Wu46] | −2.5 | –
29 | CON=C1CC2C(C)(C(=O)O)CCCC2(C)c2c(Cl)c(Cl)c(C(C)C)c(Cl)c21 (centres unmarked) [Wu47] | −13.4 | –
30 | CC(C)c1c(Cl)c(Cl)c2c(c1Cl)C(=NO)CC1C(C)(C(=O)O)CCCC21C (centres unmarked) [Wu48] | 4.7 | –
31 | C=CCON=C1CC2C(C)(C(=O)O)CCCC2(C)c2c(Cl)c(Cl)c(C(C)C)c(Cl)c21 (centres unmarked) [Wu49] | −7.3 | –
32 | CC(C)c1c(Cl)c(Cl)c2c(c1Cl)C(=NOCc1ccccc1)CC1C(C)(C(=O)O)CCCC21C (centres unmarked) [Wu51] | −1.9 | –
33 | C=CCO/N=C1\CC2[C@](C)(C(=O)O)CCC[C@]2(C)c2cc(F)c(C(C)C)cc21 (stereo partly drawn) [Wu52, (1R,4aS,E)-9-((allyloxy)imino)-6-fluoro-7-isopropyl-1,4a-dimethyl-1,2,3,4,4a,9,10,10a-octahydrophenanthrene-1-carboxylic acid] | −20.2 | –
34 | C=CCON=C1CC2C(C)(C(=O)O)CCCC2(C)c2ccc(C(C)C)c(F)c21 (centres unmarked) [Wu53] | −9.2 | –
35 | CON=C1CC2C(C)(C(=O)O)CCCC2(C)c2ccc(C(C)C)c(F)c21 (centres unmarked) [Wu54] | −9.0 | –
